Reference: US20160213742A1, “COMPOSITIONS AND METHODS FOR THE TREATMENT OF FUNGAL INFECTIONS” (priority 2013, published 2016)
Values after ≈ are worked out from the molar mass of the structure shown. “Also recorded” adds a separate entry of the source.

How the values were obtained:
C. glabrata ATCC 90030 = experiment: microbe, parasite or virus in culture; format: cell-based
Procedure, shortened: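 Aspergillus MEC and yeast MIC determined by 2-fold broth dilution in RPMI pH 7.0; plates incubated 35° C. until growth wells confluent (~24-48 hr), then read from below for growth inhibition or hyphal morphology change.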

[1] = test system: Aspergillus fumigatus strain AF293; experiment: Microfluidic Aspergillus fumigatus Killing Assay with human neutrophils; format: cell-based; settings: for percent hyphal growth compared to remaining conidia (FIG. 2): with added neutrophils (NFs), Compound 1, Compound 11, caspofungin acetate 10 nM, fMLP 100 nM, hyphae by 18 hours; for timecourse of A. fumigatus (Af) growth in FCCs (FIG. 4): in presence of PMNs, three healthy blood donors, t=0, 8, and 16 hours
From the text: Microfluidic devices used to measure leukocyte migration in response to Aspergillus fumigatus with or without drug (Compound 1 or Compound 11), antifungal control (caspofungin acetate) and/or chemoattractant (fMLP) were manufactured using known microfabrication techniques. Two layers of photoresist (SU8; Microchem), the first one 10 μm thin (corresponding to the migration channels) and the second one 70 μm thick, corresponding to the focal chemotactic chambers (FCCs) were patterned on one silicon wafer sequentially using two photolithographic masks and processing cycles according to the instructions from the manufacturer. The wafer with patterned photoresist was used as a mold to produce polydimethylsiloxane (PDMS) (Fisher Scientific) devices, which were then bonded to the base of glass-bottom 12- or 24-well plates, using an oxygen plasma machine (Nordson-March).
Aspergillus fumigatus strain AF293 expressing either cytosolic red fluorescent protein (RFP) or green fluorescent protein (GFP) was grown on Sabouraud dextrose agar plates supplemented with 100 μg/mL ampicillin at 30° C. for 3-4 days. Conidia were harvested by gentle scraping followed by washing in ice-cold phosphate buffered saline (PBS) three times. Conidia were immediately used or stored at 4° C. for use within one week.
De-identified, fresh human blood samples from healthy volunteers, aged 18 years and older, who were not receiving immunosuppressants, were purchased from Research Blood Components, LLC. Peripheral blood was drawn in tubes containing a final concentration of 5 mM EDTA (Vacutainer; Becton Dickinson) and processed within 2 h of blood collection. Using a sterile technique, neutrophils were isolated from whole blood using HetaSep followed by the EasySep Human Neutrophil Enrichment Kit ([…] Technologies) following the manufacturer's protocol. The purity of neutrophils was assessed to be >98% using the Sysmex KX-21N Hematology Analyzer (Sysmex America, Inc.). White blood cells were isolated using Hetasep followed by a 5 min spin down and wash with 1×PBS. White blood cells were stained with Hoechst (32.4 μM) (Sigma) following the manufacture's protocols. The final aliquots of white blood cells were resuspended in RPMI plus 10% fetal bovine serum (FBS−stock 50 mL FBS/450 mL RPMI) (Sigma-Aldrich) at a concentration of 20,000 cells/2 μL and kept at 37° C. Cells were then immediately introduced into the microfluidic device for the chemotaxis and Aspergillus fumigatus killing assay. All experiments were repeated at least three times with neutrophils or white blood cells from three different healthy donors.
Immediately after bonding to the well plate, donut-shaped devices were filled with Aspergillus fumigatus conidia at a concentration of 10^6 cells/mL with or without either Compound 1 or Compound 11 [10 nM], caspofungin acetate [10 nM] and/or a solution of the chemoattractant N-formyl-methionyl-leucyl-phenylalanine (fMLP) [100 nM](Sigma-Aldrich, St. Louis, Mo.). The device was then placed in a vacuum for 15 min. The solution filled all of the FCCs as the air was displaced. The devices were then vigorously washed five times with 1×PBS to remove any residual Aspergillus fumigatus conidia, drug or chemoattractant that was outside of the FCCs. The device was then submerged in 0.5 mL of cell media. Neutrophils or white blood cells (20,000 cells/2 μL) were then pipetted into the cell loading chamber (CLC) using a gel-loading pipette tip. Neutrophil migration into the migration channel toward the FCC started immediately and was recorded using time-lapse imaging on a fully automated Nikon TiE microscope (10× magnification) with biochamber heated to 37° C. with 5% carbon dioxide gas. Image analysis of cell migration counts and fungi growth was analyzed by hand using Image J software.
Image analysis of cell migration counts and fungi growth was analyzed by hand using Image J software.

Row | Compound | MIC (C. glabrata ATCC 90030; ATCC 90030, pH 7) | percent hyphal growth compared to remaining conidia (FIG. 2) [1] | timecourse of A. fumigatus (Af) growth in FCCs (FIG. 4) [1] | MIC (C. glabrata ATCC 90030; C. glabrata ATCC 90030, RPMI pH 7.0, 35° C., 24-48 hr)
1 | CC[C@H](C)C[C@H](C)CCCCCCCCC(=O)N[C@H]1C[C@@H](O)[C@@H](NCCN)NC(=O)[C@@H]2[C@@H](O)CCN2C(=O)[C@H]([C@H](O)CCNC(=O)[C@H](Cc2ccccc2)NC(=O)[C@H](CC(C)C)NC(=O)[C@H](CCSC)NC=O)NC(=O)[C@H]([C@H](O)[C@@H](O)c2ccc(O)cc2)NC(=O)[C@@H]2C[C@@H](O)CN2C(=O)[C@H]([C@@H](C)O)NC1=O [Compound 1] | 4 µg/mL (≈ 2.64 µM) | inhibition of Aspergillus fumigatus hyphal growth; also recorded: able to suppress hyphal growth |  | 
2 | CC[C@H](C)C[C@H](C)CCCCCCCCC(=O)N[C@H]1C[C@@H](O)[C@@H](OCCN)NC(=O)[C@@H]2[C@@H](O)CCN2C(=O)[C@H]([C@H](O)CCNC(=O)[C@H](Cc2ccccc2)NC(=O)[C@H](CC(C)C)NC(=O)[C@H](CCSC)NC=O)NC(=O)[C@H]([C@H](O)[C@@H](O)c2ccc(O)cc2)NC(=O)[C@@H]2C[C@@H](O)CN2C(=O)[C@H]([C@@H](C)O)NC1=O [Compound 11] | 8 µg/mL (≈ 5.28 µM) | inhibition of Aspergillus fumigatus hyphal growth; also recorded: able to suppress hyphal growth | inhibition of growth of Af | 
3 | caspofungin acetate [reference compound] |  |  | growth of Af | 0.06 to 0.25 µg/mL
